From patent US20210353579A1, “HIGH PENETRATION COMPOSITIONS AND USES THEREOF” (Techfields Pharma Co., Ltd., priority 2006, published 2021)

Experiments:
rat = conditions: rats
Description: The acute toxicity of the prodrug compounds and parent compounds are measured by LD50 of rat.

human skin tissue = conditions: pH 7.4
[1] = Plasma levels after transdermal administration to hairless mice; assay type: in vivo; conditions: mouse, in vivo
Description: Tested compounds (20% solution or suspension in 1 mL isopropanol) are administered transdermally to the skin of intact hairless mice. The plasma levels of the parent compounds are determined by HPLC.

mice = assay: Analgesic activity, acetic acid writhing; assay type: in vivo; conditions: 30 min before acetic acid
Description: The prodrug compounds are administered either transdermally or orally. The parent compounds are administered orally. The number of writhing that occurred when mice are administered the acetic acid solution are counted, and the rate of inhibition based on the control group which was not pretreated with any test compounds is calculated. […] The A group is the control group.

sun damaged skin = assay: Treatment of sun damaged skin of subjects; assay type: in vivo; conditions: applied to sun damaged skin
From the text: Diethylaminoethyl acetylsalicylate.AcOH is applied to subjects' the sun damaged skin. […] 92% of the subjects treated experienced improved elasticity and firmness, and 95% experienced overall improvement in texture and tone. The results shown that HPPs of aspirin and related compounds may be used to treat skin conditions.

[2] = pH 7
rats [3] = assay: Antipyretic activity, E. coli suspension as pyrogen; assay type: in vivo; conditions: in °C (unit assumed)
Description: Rats are administered with sterilized E. coli suspension as a pyrogen. Each group of rats are administered with a prodrug compounds or parent compounds at a dosage specified below. The prodrug compounds are administered either orally or transdermally. The parent compounds are administered orally.

C57/BL6 mice, MPTP [4] = assay: MPTP Parkinson's disease mice: DA, NA, 5-HT in the striatum; assay type: in vivo, mouse
From the text: (§1) The mice were divided into 2 groups.

[5] = test system: spontaneously hypertensive and stroke prone rats (SLAC/SHRSP); assay: Anti-stroke activity, carotid thrombosis by electrical stimulation (treated before operation); assay type: in vivo, rat; conditions: 100 mg/kg transdermally 2 hour before and 1 hour after operation, then 50 mg/kg twice per day
Description: (§2) Thrombosis was induced by electrical stimulation (1 mA for 3 minutes) of the carotid artery in spontaneously hypertensive and stroke prone rats (SLAC/SHRSP) by using a thrombosis formation instrument (YLS-14A, Shandong Academy of Medical Sciences, Shandong, China). The rats (Spragu Dawley, 25 weeks old, 380-450 g) were divided into 3 groups randomly, group A is the control group, groups B and C are aspirinamine-treated group. In group B, 100 mg/kg of aspirinamine citric acid salt (10% in water) was applied to the rats' back skin (˜5 cm^2, fur was cut off) 2 hour before the operation and 1 hour after the operation, then 50 mg/kg of the drug was applied to the back of rats twice per day. In group C, 50 mg/kg of aspirinamine was applied to the back of rats twice per day starting from 24 hours after the operation. The recovery of motor functions of rats was evaluated every day. The operation process is outlined in the Method section in the supporting online materials. […] The HPP of aspirin is the first drug which can reverses paralysis from post-stroke.

[6] = test system: spontaneously hypertensive and stroke prone rats (SLAC/SHRSP); assay: Alleviation of the effects of strokes (treatment from 24 hours after operation); assay type: in vivo, rat; conditions: 50 mg/kg twice per day on the back from 24 hours after the operation
Description: as §2

C57/BL6 mice, MPTP [7] = assay: MPTP Parkinson's disease mice: GABA and Glu in substantia nigra and striatum
Description: Group A mice were i.p. injected 0.4% sodium carboxymethylcellulos (15 ml/kg per day) for 7 days. Group B and C mice were i.p. injected N-methyl-4-phenyl-1,2,3,6-tetrahydropyridine (MPTP, 30 mg/kg per day) for 7 days. The mice were divided into 2 groups. […] All mice were killed after the last treatment and the brain tissues were quickly frozen at −80° C. […] The contents of GABA and Glu in the striatum and SN were shown by high performance amino acid auto-analyser.

C57/BL6 mice, MPTP [8] = assay: MPTP Parkinson's disease mice: GSH and MDA in the substantia nigra; assay type: in vivo, mouse; conditions: MPTP + 30 mg/kg transdermally 14 days
From the text: as §1

rats [9] = assay: Spinal cord injury, recovery from paralysis; assay type: in vivo, rat; conditions: 5 mg in 0.2 ml water on the area of injury twice per day for 1 months
Description: A group of rat was anesthetized with chloral hydrate, the spinal cord of rats was hit to induce spinal cord injury. At the next day, 20 completely paralyzed rats were divided into 2 groups. […] In group B (n=10), 5 mg of diethylaminopropyl acetylsalicylate.HCl in 0.2 ml of pure water was applied to the area of injury (˜2×3 cm^2) twice per day for 1 months. After the treatment, all rats (10/10) in control group (group A) were still completely paralyzed. We were excited to see that all rats (10/10) in the diethylaminopropyl acetylsalicylate.HCl treated group (group B) could walk. 4 Rats of them were completely normal and other 6 rats walked more slowly and less confidently than their injury. This therapeutic approach can treat spinal cord injury in humans and animals.

β-amyloid (Aβ) = assay: Tg2576 mouse model of Alzheimer disease: Aβ and senile plaques; assay type: in vivo
From the text: For many years, efforts have been focused on the development of inhibitors of β-amyloid (Aβ) formation and its related neurotoxic effects. To determine the effect of diethylaminopropyl acetylsalicylate. HCl on in vivo Aβ accumulation, we administered transdermally diethylaminopropyl acetylsalicylate. […] Three-month-old female transgenic mice overexpressing the human APP gene containing the Swedish mutation that causes familial AD (Tg2576 line) were used for testing the effects of diethylaminopropyl acetylsalicylate.HCl in vivo. 20 Tg2576 mice were divided into 2 groups. […] In group B (n=10), 50 mg/kg of diethylaminopropyl acetylsalicylate.HCl in 0.2 ml of pure water was applied to the back of mouse once per day for 2 months. Then the animals were killed and their brains were removed for analysis. For Aβ analysis, hemibrains were dounce homogenized in 70% formic acid at 150 mg tissue/ml formic acid solution. Homogenates were transferred to a chilled ultracentrifuge and were then spun at 100,000 g for 1 h at 4° C. Supernatants were collected and neutralized with formic acid neutralization buffer (1.0 M Tris base, 0.5 M NaH2PO4, and 0.05% NaN3; 1:20) for Aβ quantitation by ELISA. Aβ40 and Aβ42 were assayed by ELISA. Four individual experiments were performed. To compare across studies, the values for an individual study were normalized using the values obtained for the control animals included in each study. Values represent the mean±SE for the n number shown, after normalizing.

Tg2576 mouse = assay: Tg2576 mice: radial-arm water-maze test of working memory; assay type: in vivo; conditions: 50 mg/kg, 2 months
Description: To determine if the transdermal administration of diethylaminopropyl acetylsalicylate.HCl has beneficial functional consequences, we tested 2 months of diethylaminopropyl acetylsalicylate.HCl (50 mg/kg) in the transgenic model for Alzheimer's disease in which mice develop learning deficits as amyloid accumulates. […] In the diethylaminopropyl acetylsalicylate.HCl (50 mg/kg) treated group, all mice performed superbly on the radial-arm water-maze test of working memory and untreated transgenic mice show memory deficits. […] This therapeutic approach can thus prevent and treat Alzheimer's dementia.

[10] = MPTP mice, 30 mg/kg transdermally to the neck once per day for 14 days
[11] = MPTP mice, 30 mg/kg transdermally once per day for 14 days
[12] = 50 mg/kg transdermally, 2 months
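Wherever LD50 of HPP is given: acute toxicity in rats expressed as LD50, determined for both prodrugs and their parent compounds.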

CCN(CC)CCOC(=O)c1ccccc1OC(C)=O [diethylaminoethyl acetylsalicylate.AcOH]
LD50 of HPP (rat): 2300 mg/kg | In vitro penetration rate (apparent flux), prodrug compounds (human skin tissue): 1000 μg/cm^2/h | Peak plasma concentration of parent compound after prodrug compound [1]: 30 mg/L | t, time to peak plasma level of parent compound after prodrug compound [1]: 20 min | % (rate of writhing inhibition) (mice; 50 mg/kg orally): 54% | No. of Writhing (mice; 50 mg/kg orally): 15.4 | % (rate of writhing inhibition) (mice; 50 mg/kg transdermally): 56% | No. of Writhing (mice; 50 mg/kg transdermally): 14.5 | % (rate of writhing inhibition) (mice; 100 mg/kg orally): 67% | No. of Writhing (mice; 100 mg/kg orally): 11.0 | % (rate of writhing inhibition) (mice; 100 mg/kg transdermally): 70% | No. of Writhing (mice; 100 mg/kg transdermally): 10.1 | reduction in roughness (sun damaged skin): 89% | reduction in the appearance of fine lines and wrinkles (sun damaged skin): 85% | reduction in the look of freckles, moles, dark spots, and other discolorations (sun damaged skin): 85% | reduction of acne (sun damaged skin): 97% | subjects that experienced overall improvement in texture and tone (sun damaged skin): 95% | subjects treated that experienced improved elasticity and firmness (sun damaged skin): 92% | Solubility of HPP [2]: >300 mg/mL | body temperature, t = 0 min (rats [3]; 100 mg/kg orally): 37.25 ± 0.09 | body temperature, t = 90 min (rats [3]; 100 mg/kg orally): 36.40 ± 0.15 | body temperature, t = 180 min (rats [3]; 100 mg/kg orally): 36.50 ± 0.09 | body temperature, t = 270 min (rats [3]; 100 mg/kg orally): 36.40 ± 0.15 | body temperature, t = 0 min (rats [3]; 100 mg/kg transdermally): 37.19 ± 0.07 | body temperature, t = 90 min (rats [3]; 100 mg/kg transdermally): 36.40 ± 0.05 | body temperature, t = 180 min (rats [3]; 100 mg/kg transdermally): 36.38 ± 0.05 | body temperature, t = 270 min (rats [3]; 100 mg/kg transdermally): 36.40 ± 0.15 | body temperature, t = 0 min (rats [3]; 150 mg/kg orally): 37.18 ± 0.07 | body temperature, t = 90 min (rats [3]; 150 mg/kg orally): 36.30 ± 0.15 | body temperature, t = 180 min (rats [3]; 150 mg/kg orally): 36.28 ± 0.07 | body temperature, t = 270 min (rats [3]; 150 mg/kg orally): 36.20 ± 0.09 | body temperature, t = 0 min (rats [3]; 150 mg/kg transdermally): 37.33 ± 0.05 | body temperature, t = 90 min (rats [3]; 150 mg/kg transdermally): 36.27 ± 0.15 | body temperature, t = 180 min (rats [3]; 150 mg/kg transdermally): 36.26 ± 0.07 | body temperature, t = 270 min (rats [3]; 150 mg/kg transdermally): 36.22 ± 0.08

CCN(CC)CCOC(=O)c1ccccc1OC(C)=O.O=C(O)CC(O)(CC(=O)O)C(=O)O [diethylaminoethyl acetylsalicylate.citric acid]
DA, NA, and 5-HT contents in the striatum (C57/BL6 mice, MPTP [4]; 30 mg/kg transdermally, vs MPTP model group, P<0.05): increased | 5-HT concentration in the striatum (C57/BL6 mice, MPTP [4]; [10]): 302 ± 29 | DA concentration in the striatum (C57/BL6 mice, MPTP [4]; [10]): 817 ± 89 μg/g wet tissue | NA concentration in the striatum (C57/BL6 mice, MPTP [4]; [10]): 602 ± 55 | Stroke-free rats (2 hours) [5]: 8/10 | Stroke-free rats (1 day) [5]: 9/10 | Stroke-free rats (7 days) [5]: 10/10 | Stroke-free rats (3 hrs) ([6]; 3 hrs after operation (before treatment start)): 0/10 | Stroke-free rats (2 day) ([6]; 2 day): 4/10 | Weight Loss (3 days) ([6]; 3 days): −13 +/− 7% | Stroke-free rats (7 day) ([6]; 7 day): 9/10 | Weight Loss (7 days) ([6]; 7 days): −7 +/− 4% | Stroke-free rats (14 days) ([6]; 14 days): 10/10 | Weight Loss (14 days) ([6]; 14 days): −4 +/− 2% | MPTP-induced changes of GABA in striatum and SN (C57/BL6 mice, MPTP [7]; 30 mg/kg): reversed | GABA concentration, Striatum (C57/BL6 mice, MPTP [7]; [11]): 4.9 ± 1.6 μmol/g wet tissue | GABA concentration, Substantia nigra (C57/BL6 mice, MPTP [7]; [11]): 4.7 ± 0.5 μmol/g wet tissue | Glu concentration, Striatum (C57/BL6 mice, MPTP [7]; [11]): 26.5 ± 2.7 | Glu concentration, Substantia nigra (C57/BL6 mice, MPTP [7]; [11]): 29.5 ± 2.4 | MDA in the substantia nigra (C57/BL6 mice, MPTP [8]; control 13 ± 3, MPTP + water 21 ± 4): 14 ± 4 μmol/g protein | GSH in the substantia nigra (C57/BL6 mice, MPTP [8]; control 152 ± 12, MPTP + water 101 ± 17): 143 ± 13 μg/g protein

CCN(CC)CCCOC(=O)c1ccccc1OC(C)=O.Cl [diethylaminopropyl acetylsalicylate.HCl]
rats completely normal after treatment (rats [9]): 4 | rats that could walk after treatment (rats [9]): 10/10 | reduction in the number of senile plaques (β-amyloid (Aβ); 50 mg/kg transdermally over 2 months): 70-80% | reduction in Aβ42 concentration in the brain (β-amyloid (Aβ); [12]): 70% | reduction of the amount of Aβ detected in the brains (β-amyloid (Aβ); [12]): 70% | Aß42 concentration (β-amyloid (Aβ); Tg2576 mice, 50 mg/kg transdermally once per day for 2 months): 2.3 ± 0.3 pmol/g tissue | cognitive performance, radial-arm water-maze test of working memory (Tg2576 mouse): performed as well as nontransgenic mice
